Values quoted from earlier work as cited in patent publication US20050019354A1, “Topical benfotiamine treatments” (priority 2003, published 2005).

How the values were obtained:
[1] = system: retinopathy in diabetic rats
transketolase = biological target: T1, transketolase (Homo sapiens, UniProt P29401)
T1 sequence (P29401 1-623): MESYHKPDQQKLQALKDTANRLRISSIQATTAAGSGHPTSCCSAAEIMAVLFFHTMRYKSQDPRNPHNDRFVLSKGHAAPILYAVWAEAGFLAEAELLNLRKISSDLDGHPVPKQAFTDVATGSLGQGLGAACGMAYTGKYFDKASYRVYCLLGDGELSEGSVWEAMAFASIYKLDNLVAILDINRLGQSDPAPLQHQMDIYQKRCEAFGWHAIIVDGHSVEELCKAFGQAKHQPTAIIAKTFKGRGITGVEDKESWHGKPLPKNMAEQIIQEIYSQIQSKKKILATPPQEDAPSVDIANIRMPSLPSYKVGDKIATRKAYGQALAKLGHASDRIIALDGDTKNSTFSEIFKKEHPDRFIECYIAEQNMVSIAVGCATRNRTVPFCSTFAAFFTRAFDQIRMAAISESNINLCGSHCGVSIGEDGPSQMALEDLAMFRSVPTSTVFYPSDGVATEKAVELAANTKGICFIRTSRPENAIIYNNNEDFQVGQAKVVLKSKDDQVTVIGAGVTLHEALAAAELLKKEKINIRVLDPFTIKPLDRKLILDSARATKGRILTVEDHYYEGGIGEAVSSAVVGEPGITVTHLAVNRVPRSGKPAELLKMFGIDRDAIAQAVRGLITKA

increase of transketolase activity (transketolase): 300%
SMILES: C/C(=C(\CCOP(=O)(O)O)SC(=O)c1ccccc1)N(C=O)Cc1cnc(C)nc1N [Benfotiamine, S-Benzoylthiamine-O-Monophosphate]
effect on retinopathy [1]: prevented retinopathy
